In ChEMBL document CHEMBL3886751, “Disubstituted beta-lactones as inhibitors of N-acylethanolamine acid amidase (NAAA)” (2016):

The compounds below were run against T1, N-acylethanolamine-hydrolyzing acid amidase (Rattus norvegicus, UniProt Q5KTC7) (assay: Enzymatic Assay: Lysosomal NAAA protein preparation were obtained by homogenizing male Sprague-Dawley rat lungs (Charles River) in 20 mM Tris-HCl buffer pH 7.4 containing 0.32M sucrose. Samples were centrifuged at 800×g for 15 minutes at 4° C. Supernatants were then centrifuged at 12,000 g for 30 minutes at 4° C. Pellets were then resuspended in PBS pH 7.4 and subjected to a freeze/thaw cycle at −80° C. The suspension was finally centrifuged at 105,000×g for 1 hour at 4° C. The supernatant was then used in the enzymatic assay.).
T1 sequence (Q5KTC7 whole entry): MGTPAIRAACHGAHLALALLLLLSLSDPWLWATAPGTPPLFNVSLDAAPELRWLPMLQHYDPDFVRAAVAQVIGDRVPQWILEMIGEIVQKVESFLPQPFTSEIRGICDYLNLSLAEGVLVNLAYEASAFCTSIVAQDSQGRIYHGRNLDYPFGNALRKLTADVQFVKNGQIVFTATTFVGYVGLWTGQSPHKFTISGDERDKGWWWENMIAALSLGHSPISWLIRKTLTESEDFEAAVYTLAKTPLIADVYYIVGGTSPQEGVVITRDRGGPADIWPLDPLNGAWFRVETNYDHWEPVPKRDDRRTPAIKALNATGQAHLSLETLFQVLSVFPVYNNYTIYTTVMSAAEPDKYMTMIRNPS

Structure (SMILES) | IC50 [nM]
CC(OC(=O)N[C@H]1C(=O)O[C@H]1C)c1ccc(-c2ccccc2)cc1 (mixture of isomers) | 50
C[C@@H]1OC(=O)[C@@H]1NC(=O)OCc1ccc(-c2ccc(C(F)(F)F)cc2)cc1 | 24

What follows are compounds tested against T2, N-acylethanolamine-hydrolyzing acid amidase (Homo sapiens, UniProt Q02083) (assay: Fluorogenic Assay: The assay was run in Optiplate 96-wells black plates, in a total reaction volume of 200 μL. NAAA protein preparation (4.0 μg) was pre-incubated for 10 min with various concentrations of test compounds or vehicle control (5% DMSO) in 100 mM citrate/phosphate buffer (pH 4.5) containing 3.0 mM DTT, 0.1% Triton X-100, 0.05% BSA, 150 mM NaCl. N-(4-methyl-2-oxo-chromen-7-yl)-hexadecanamide was used as a substrate (5.0 μM) and the reaction carried over for 30 min at 37° C. The samples were then read in a Perkin Elmer Envision plate reader using an excitation wavelength of 360 nm and emission 460 nm.).
T2 sequence (Q02083 whole entry): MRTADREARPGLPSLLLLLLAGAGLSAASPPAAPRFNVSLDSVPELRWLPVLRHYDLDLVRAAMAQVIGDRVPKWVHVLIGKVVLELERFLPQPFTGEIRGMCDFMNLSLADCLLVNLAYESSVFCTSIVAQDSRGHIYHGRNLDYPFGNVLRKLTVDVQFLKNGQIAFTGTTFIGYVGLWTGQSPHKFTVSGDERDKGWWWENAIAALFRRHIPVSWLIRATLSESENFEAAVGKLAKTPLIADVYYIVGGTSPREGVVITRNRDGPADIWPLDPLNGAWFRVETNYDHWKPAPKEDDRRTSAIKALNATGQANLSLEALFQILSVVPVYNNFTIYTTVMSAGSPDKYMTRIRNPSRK

Structure (SMILES) | IC50 [nM]
CC(C)[C@@H]1OC(=O)[C@@H]1NC(=O)OCc1ccc(-c2ccccc2)cc1 (relative stereo) | 37
CC(C)(C)[C@H]1OC(=O)[C@@H]1NC(=O)OCc1ccc(-c2ccccc2)cc1 (relative stereo) | 465
CC[C@H]1OC(=O)[C@@H]1NC(=O)OCc1ccc(-c2ccccc2)cc1 (relative stereo) | 6
CC(C)[C@H]1OC(=O)[C@@H]1NC(=O)OCc1ccc(-c2ccccc2)cc1 (relative stereo) | 23
CC(C)(C)[C@@H]1OC(=O)[C@@H]1NC(=O)OCc1ccc(-c2ccccc2)cc1 (relative stereo) | 897
CC[C@@H]1OC(=O)[C@@H]1NC(=O)OCc1ccc(-c2ccccc2)cc1 (relative stereo) | 15

Each compound was assayed against T2, N-acylethanolamine-hydrolyzing acid amidase (assay: UPLC/MS Assay: NAAA protein preparation (10 ug) was pre-incubated with various concentrations of test compound or vehicle control in 100 mM NaH2PO4, 100 mM Tri Sodium Citrate Dehydrate, 0.1% Triton-X 100, 3 mM DTT, pH 4.5 for 30 min at 37° C. Duplicate samples were then incubated with 50 uM C17:1 10-cis-heptadecenoylethanolamide (Avanti Polar Lipids, Alabaster, Ala. USA) at 37° C. for 30 minutes. The reaction was terminated by the addition of 0.2 mL of cold methanol containing 1 nmol of heptadecanoic acid (NuChek Prep, Elysian, Minn. USA) as internal standard. Samples were then analyzed by UPLC/MS. Heptadecenoic and heptadecanoic acids were eluted on an Acquity UPLC BEH C18 column (50 mm length, 2.1 mm i.d., 1.7 um pore size, Waters) isocratically at 0.5 mL/min for 1.5 min with a solvent mixture of 95% methanol and 5% water, both containing 0.25% Acetic Acid and 5 mM Ammonium Acetate. The column temperature was 40° C. Electrospray ionization was in the negative mode, capillary voltage was 0.5 kV, […], desolvation temperature was 500° C. N2 was used as drying gas at a flow rate of 1000 L/hour and a temperature of 500° C. The [M-H]- ion was monitored in the selected-ion monitoring mode (m/z values: heptadecenoic acid 267.37, heptadecanoic acid 269.37). Calibration curves were generated using commercial heptadecenoic acid (NuCheck Prep). […]).

IC50 [nM] | Structure (SMILES)
10 | CC(OC(=O)N[C@H]1C(=O)O[C@H]1C)c1ccc(-c2ccccc2)cc1 (mixture of isomers)
